Experimental data reported in patent US9415049B2, “Heteroaryl compounds and uses thereof” (Celgene Avilomics Research, Inc., priority 2013, dated 2016).

Columns and labels:
[1] = target: human recombinant full-length Btk enzyme (Homo sapiens, UniProt Q06187); test: Omnia Continuous Read Kinase Assay, Btk inhibition; type: biochemical; parameters: human recombinant full-length Btk enzyme; conditions: 30 minutes pre-incubation at 27° C.; 0.5 nM to 10 μM
Description: The following Example describes testing certain compounds according to the invention for inhibition of BTK activity. The Omnia® Continuous Read Kinase Assay uses an unnatural amino acid chelation enhanced fluorophore (Sox; 8-hydroxy-5-(N,N-dimethylsulfonamido)-2 methylquinoline) incorporated into a kinase-specific peptide substrate to characterize Btk enzyme kinetics and inhibition. Following Btk-mediated phosphorylation, a sensitive, highly quantifiable increase in real-time fluorescence is noted based upon the ability of chelated Mg2+ to form a bridge between Sox and the phosphate group on a tyrosine residue of the peptide substrate. The Omnia® continuous read assay was performed essentially as described by the vendor (Invitrogen; Carlsbad, Calif.). First, a 10× stock of human recombinant full-length Btk enzyme was prepared in Kinase Reaction Buffer. 5 μL of the 10× enzyme was pre-incubated with 0.5 μL of serially diluted compound prepared in 50% DMSO, in a 384-well microtiter plate for 30 minutes at 27° C. 1.13×ATP and the Tyr5-Sox conjugated peptide substrate were prepared in 1× Kinase Reaction Buffer. Kinase reactions were initiated by the addition of 45 μL of the 1.13×ATP-Sox peptide substrate master mix and monitored every 30 to 90 seconds for 60 minutes at λex360/λem485 in a Synergy plate reader. The IC50 values for each compound assayed were determined from test concentrations of 0.5 nM to 10 μM in half-log intervals performed in duplicate.
At the conclusion of each assay, progress curves from each well were examined for linear reaction kinetics and fit statistics (R2, 95% confidence interval, absolute sum of squares) using GraphPad software (GraphPad Prism version 5.01; San Diego, Calif.). Initial velocity (0 minutes to ˜30+ minutes) from each reaction was determined from the slope of a plot of relative fluorescence units versus time (minutes). Using control normalized % inhibition data, plots were constructed against inhibitor concentration to estimate IC50 from log [inhibitor] versus response using a variable slope model in GraphPad. The compound numbers correspond to the compound numbers in Table 1.

[2] = target: T1, BTK (Homo sapiens, UniProt Q06187); test: Btk target site occupancy, covalent probe ELISA in Ramos cells; type: cell-based; conditions: 1 hour at 37° C., 0.09-200 nM, read-out: Ramos cell EC50 (nM), BTK occupancy
T1 construct: endogenous in cells; host or cells: Ramos cells
T1 sequence (Q06187 whole entry): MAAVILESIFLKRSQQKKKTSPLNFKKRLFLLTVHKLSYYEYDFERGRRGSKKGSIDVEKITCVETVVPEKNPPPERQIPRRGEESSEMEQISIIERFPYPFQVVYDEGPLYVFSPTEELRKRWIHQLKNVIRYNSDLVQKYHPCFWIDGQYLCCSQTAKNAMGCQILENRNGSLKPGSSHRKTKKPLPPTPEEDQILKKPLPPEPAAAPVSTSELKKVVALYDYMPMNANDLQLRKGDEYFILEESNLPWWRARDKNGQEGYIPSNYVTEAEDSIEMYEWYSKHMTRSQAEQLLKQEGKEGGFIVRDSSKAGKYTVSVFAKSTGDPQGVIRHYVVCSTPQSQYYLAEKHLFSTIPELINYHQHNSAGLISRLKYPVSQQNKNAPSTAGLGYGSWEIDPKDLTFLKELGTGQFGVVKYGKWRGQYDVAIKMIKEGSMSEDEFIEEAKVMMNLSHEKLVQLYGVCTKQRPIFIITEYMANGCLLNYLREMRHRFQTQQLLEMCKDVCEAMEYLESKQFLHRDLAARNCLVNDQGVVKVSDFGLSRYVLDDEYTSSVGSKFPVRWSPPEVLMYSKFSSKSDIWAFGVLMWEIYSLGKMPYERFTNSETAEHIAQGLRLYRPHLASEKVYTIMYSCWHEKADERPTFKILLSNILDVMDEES
Protocol: A covalent probe shown below was used in an ELISA assay to determine occupancy of the target BTK by certain compounds according to the invention.
Ramos cells were incubated in serum-free RPMI medium for 1 hour (˜2×10^6 cells/mL in 2 mL). Test compounds were diluted from a 10 mM DMSO stock solution, to achieve a final concentration of 0.09, 0.27, 0.82, 2.47, 7.42, 22.2, 66, and 200 nM. Cells were then incubated for 1 hour at 37° C. Following incubation, cells were spun at 1100 RPM for 5 minutes then washed in 200 μL of chilled PBS. Following the wash, cells were spun at 1100 RPM for 5 minutes. The supernatant was aspirated and then cells were resuspended in lysis buffer containing protease and phosphatase inhibitors. This was followed by centrifugation for 15 minutes at 14000 RPM at 4° C. Supernatant was transferred to a fresh tube. Lysates were stored at −80° C. until assayed.
Samples were thawed and mixed well by vortexing for 5 seconds. 60 μL of each sample was added into the 96-well mixing plate followed by addition of 60 μL of covalent probe solution (2 μM probe in PBS+0.05% Tween-20+1% BSA; 1:2 sample dilution) to each well containing sample. An adhesive cover was then placed on the plate followed by mixing of the plate on a shaker for 1 hour at room temperature. The streptavidin plate was pre-washed 3 times with PBS+0.05% Tween-20. 50 μL of the standards, QCs, and samples were then transferred from the mixing plate to the streptavidin plate. The plate was covered with an adhesive cover and mixed while shaking for 1 hour at room temperature. A 1:1000 dilution of the primary anti-Btk antibody (catalog #611116, Becton Dickinson; Franklin Lakes, N.J.) in PBS+0.05% Tween-20+0.5% BSA was prepared. The streptavidin plate was washed 3 times with PBS+0.05% Tween-20 and 50 μL/well of diluted anti-Btk antibody was then pipetted into the streptavidin plate. The plate was covered and incubated for 1 hour at room temperature. A 1:5000 dilution of secondary antibody (goat anti-mouse-HRP, catalog #62-6520, Zymed-Invitrogen; Carlsbad, Calif.) in PBS+0.05% Tween-20+0.5% BSA was prepared. The streptavidin plate was again washed 3 times with PBS+0.05% Tween-20 and 50 μL/well of diluted secondary antibody was pipetted into the streptavidin plate. The plate was covered and incubated for 1 hour at room temperature. The streptavidin plate was again washed 3 times with PBS+0.05% Tween-20 followed by the addition of 100 μL of TMB solution to each well. The plate was then read on a Synergy^2 plate reader at OD 650 nm until the OD maximum reached 1.0. This was followed by the addition of 100 μL of the Stop Solution. The plate was then read at OD 450 nm. A human recombinant Btk protein standard curve (11.7-3000 pg/μL) was plotted using a 4 parameter curve fit in GenS software (Version 1.05.11; Biotek; Winooski, Vt.;). The sample ODs were read against the standard curve to calculate free protein amounts.
Data were generated as ODs on an ELISA plate reader (Synergy^2, BioTek; Winooski, Vt.). Uninhibited Btk captured by the biotinylated covalent probe was quantitated and normalized to untreated control samples. Results were expressed as % Btk occupancy. EC50 values were generated using a 4 parameter curve fit analysis in GraphPad Prism version 5.0.

human recombinant full-length Btk enzyme, sequence (Q06187 whole entry): as above

Q: Which results are given for `C=CC(=O)Nc1cccc(Nc2nc(Nc3ccc(O)cc3)ncc2F)c1` [Compound I-3, N-(3-((5-fluoro-2-((4-hydroxyphenyl)amino)pyrimidin-4-yl)amino)phenyl)acrylamide]?
A: IC50 [1]: ≤ 10 nM; EC50 [2]: < 50 nM

Q: With `C=CC(=O)Nc1cccc(Nc2nc(Nc3ccc(OCCO)cc3)ncc2F)c1` [Compound I-1, N-(3-((5-fluoro-2-((4-(2-hydroxyethoxy)phenyl)amino)pyrimidin-4-yl)amino)phenyl)acrylamide] as the molecule, how does the IC50 [1] read?
A: Its IC50 is at most 10 nM.

Q: And the EC50 [2]?
A: The EC50 was under 50 nM.
